Assay type in all cases: functional
One assay concerns EKVX. The assay is described as follows: Growth inhibition of human EKVX cells incubated for 48 hrs by sulforhodamine B assay.
A short description of assay [1]: Cytotoxicity against human DU145 cells assessed as cell growth at 10 uM incubated for 48 hrs by sulforhodamine B assay. The note with it: DU-145, 48 h, read-out: Activity. (Sulforhodamine B stains cellular protein and so reports cell mass.)
Assay [2] is described as follows: Cytotoxicity against human HOP62 cells assessed as cell growth at 10 uM incubated for 48 hrs by sulforhodamine B assay. The note with it: HOP-62, 48 h, read-out: Activity.
Assay [3] is described as follows: Growth inhibition of human Caki1 cells incubated for 48 hrs by sulforhodamine B assay. To be noted: CAKI-1, 48 h.
A short description of assay [4]: Growth inhibition of human SF295 cells incubated for 48 hrs by sulforhodamine B assay. To be noted: SF-295, 48 h.
A short description of assay [5]: Cytotoxicity against human OVCAR8 cells assessed as cell growth at 10 uM incubated for 48 hrs by sulforhodamine B assay. To be noted: OVCAR-8, 48 h, read-out: Activity.
Assay [6] in a line: Cytotoxicity against human COLO205 cells assessed as cell growth at 10 uM incubated for 48 hrs by sulforhodamine B assay. To be noted: COLO 205, 48 h, read-out: Activity.
The subject of a further assay is MDA-MB-435. The experiment in a line: Growth inhibition of human MDA-MB-435 cells incubated for 48 hrs by sulforhodamine B assay. The note with it: MDA-MB-435, 48 h.
The next assay deals with NCI-H226. The experiment in a line: Cytotoxicity against human NCI-H226 cells assessed as cell growth at 10 uM incubated for 48 hrs by sulforhodamine B assay. To be noted: NCI-H226, 48 h, read-out: Activity.
Assay [7] in a line: Cytotoxicity against human BT549 cells assessed as cell growth at 10 uM incubated for 48 hrs by sulforhodamine B assay. The note with it: BT-549, 48 h, read-out: Activity.
Assay [8] in a line: Growth inhibition of human MOLT4 cells incubated for 48 hrs by sulforhodamine B assay. The note with it: MOLT-4, 48 h.
The nature of assay [9]: Cytotoxicity against human HCC2998 cells assessed as cell growth at 10 uM incubated for 48 hrs by sulforhodamine B assay. The note with it: HCC 2998, 48 h, read-out: Activity.
For the next assay, the system named is NCI-H322M. The assay is described as follows: Cytotoxicity against human NCI-H322M cells assessed as cell growth at 10 uM incubated for 48 hrs by sulforhodamine B assay. The note with it: read-out: Activity.
For another assay, the system named is SK-MEL-2. The assay is described as follows: Cytotoxicity against human SK-MEL-2 cells assessed as cell growth at 10 uM incubated for 48 hrs by sulforhodamine B assay. The note with it: SK-MEL-2, 48 h, read-out: Activity.
Another assay deals with K562. The experiment in a line: Growth inhibition of human K562 cells incubated for 48 hrs by sulforhodamine B assay. The note with it: K562, 48 h.
The next assay has as its system SK-MEL-28. The experiment in a line: Cytotoxicity against human SK-MEL-28 cells assessed as cell growth at 10 uM incubated for 48 hrs by sulforhodamine B assay. To be noted: SK-MEL-28, 48 h, read-out: Activity.
A short description of assay [10]: Growth inhibition of human OVCAR4 cells incubated for 48 hrs by sulforhodamine B assay. The note with it: OVCAR-4, 48 h.
Assay [11] in a line: Cytotoxicity against human OVCAR3 cells assessed as cell growth at 10 uM incubated for 48 hrs by sulforhodamine B assay. The note with it: OVCAR-3, 48 h, read-out: Activity.
Setting [12] is: read-out: LC50 (the source's name).

The GI50 is the concentration giving 50% growth inhibition. Low values mean more potent growth inhibition, high ones less potent growth inhibition. What is called TGI is the concentration at which net growth stops. Lower therefore signals greater sensitivity of the cells. Consider `Cc1cc(=O)oc2c(C)c(O)c(-c3ccnc(N)n3)cc12`, for which the GI50 in the assay on EKVX was 48.4 µM; in assay [3] it was 3.95 µM; in assay [4] it was 8.74 µM; in the assay on MDA-MB-435, above 100 µM. Besides, the TGI (in the assay on EKVX; in assay [3]; in assay [4]; in the assay on MDA-MB-435) was above 100 µM throughout. Also, the CC50 (in the assay with EKVX (setting [12]); in [3] (setting [12]); in [4] (setting [12]); in the assay on MDA-MB-435 (setting [12])) was above 100 µM in each case. The growth at 10 µM in [1] was determined as 66.6%; in assay [2] it was 67.8%; in assay [5] it was 48%; in [6], 46.9%; in the assay with NCI-H226 it was 52.3%.

For `Cc1cc(=O)oc2c(C)c(O)c(-c3cc4ccc(F)cc4[nH]3)cc12`, the growth at 10 µM in assay [7] came to 47.6%; in assay [9] it was 24.9%; in the assay on NCI-H322M, 53.4%; with SK-MEL-2, 19.5%; in the assay on SK-MEL-28 it was 55.3%; in [11], 16.5%. Besides, the GI50 in assay [8] is 3.27 µM; with K562 it was 2680 nM; in assay [10], 3.99 µM. In addition, the TGI in assay [8] came to 15 µM; with K562, 23 µM; in [10], 32.9 µM. Besides, the CC50 (in assay [8] (setting [12]); in the assay on K562 (setting [12]); in [10] (setting [12])) was above 100 µM throughout.

(Values after ChEMBL document CHEMBL3734723, “Synthesis and anticancer activity of 6-heteroarylcoumarins” (2015).)
